Source: patent US20230094952A1, “Method for Culturing Hematopoietic Stem Cells” (Sumitomo Pharma Co., Ltd., priority 2019, published 2023)

What was measured:
[1] = test system: human hematopoietic stem cells (CD34-positive cells); test: Confirmation test with human cells: 1-week culture of cord blood Lineage-negative CD34-positive cells, flow cytometry; assay type: cell-based
Text: Collection of Human Cord Blood-Derived Mononuclear Cells Human cord blood-derived mononuclear cells were subjected to removal of erythrocytes and concentration treatment by using EasySep RBC Depletion Reagent (manufactured by […] Technologies Inc.) to obtain a cell population including hematopoietic stem cells.
First, a CD34-positive cell fraction was partially purified from the thus-obtained cell population including hematopoietic stem cells by using an EASYSep Human Cord Blood CD34 Positive Selection Kit II (manufactured by […] Technologies Inc.). The concentrated CD34-positive cells in a cell population enriched with hematopoietic stem cells and progenitor cells were stained with antibodies for the following cell surface markers.
Staining with the antibodies was performed at 4° C., and the cells were incubated for 30 minutes. For staining with the CD34 antibody, the cells were incubated for 90 minutes. Dead cell staining was performed with SYTOX Blue Dead Cell Stain (manufactured by Life Technologies) in accordance with a method recommended by the manufacturer.
Flow cytometry analysis and cell classification (cell sorting) were performed with a FACS Aria III cell sorter (manufactured by BD Biosciences), wherein fractions being Lineage-negative and CD34-positive were regarded as hematopoietic stem cells, and analysis was performed with the software FlowJo (manufactured by Tree Star, Inc.).
The cells after classification were seeded in a 96-well plate. […]
Each of artemether and the compounds of Example 1-23, Example 1-16, and Example 1-7 was prepared with the cell culture medium at nine final concentrations (0.001 μM, 0.003 μM, 0.01 μM, 0.03 μM, 0.1 μM, 0.3 μM, 1 μM, 3 μM, 10 μM), and added to the above human cells seeded after classification to a final volume of 200 μL/well to act thereon. UM171 (35 nM) was added to some of them to examine the presence or absence of synergistic effect. Thereafter, the cells were cultured in a CO2 incubator under conditions of 37° C. and 5% CO2 for 1 week. Viable cell counts and CD34-positive cell counts were analyzed.
After culture, the cells were stained with the antibodies for the surface markers CD34, CD11b, CD14, CD19, CD20, CD235ab, CD3, CD4, CD56, and CD8a, and the visible cell count and the ratio and post-growth cell count of a CD34 fraction (CD34^+, Lin^−) were measured by using a FACS Aria III cell sorter, and analyzed by using FlowJo (BD Biosciences). The CD34 fraction is a fraction including hematopoietic stem cells and multipotent progenitor cells as main components.

[2] = test system: human hematopoietic stem cells (CD34-positive cells); test: Functional test with human cells: colony assay (CFU-GEMM) after culture; assay type: cell-based
Procedure: Each of artemether and the compounds of Example 1-23, Example 1-16, and Example 1-7 was prepared with the cell culture medium at nine final concentrations (0.001 μM, 0.003 μM, 0.01 μM, 0.03 μM, 0.1 μM, 0.3 μM, 1 μM, 3 μM, 10 μM), and added to the above human cells seeded after classification to a final volume of 200 μL/well to act thereon. UM171 (35 nM) was added to some of them to examine the presence or absence of synergistic effect. Thereafter, the cells were cultured in a CO2 incubator under conditions of 37° C. and 5% CO2 for 1 week, collected, and then seeded in a 96-well plate to place one CD34-positive cell in each well by using a FACS Aria III cell sorter, and cultured with a MethoCult H4435 ([…] Technologies Inc.) for 2 weeks. After culture, each well was photographed with an optical microscope (manufactured by KEYENCE CORPORATION), and the colony count was determined by visual observation and the form of each colony was determined by visual observation. Colony Formation Unit-Granulocytes, Erythroids, Macrophages, Megakaryocytes (CFU-GEMM), which are derived from myeloid progenitor cells, the erythroid burst colony-forming cells Burst Forming Unit-Erythroids (BFU-E), the granulocyte/macrophage colony-forming cells Colony Formation Unit-Granulocytes, Macrophages (CFU-GM) were determined on the basis of the forms of colonies, and the numbers were counted.

[3] = test system: human CD34-positive cells transplanted into NOG mouse; test: In vivo engraftment test with human cells in irradiated NOG mouse (peripheral blood donor chimerism); details: cells cultured with compound 0.003 μM, 10000 cells transplanted
Procedure: (§1) Each of artemether and the compound of Example 1-23 was prepared with the cell culture medium at a final concentration of 0.003 μM or 0.01 μM, and added to the above human cells seeded after classification (166 cells were seeded per well) to a final volume of 200 μL/well to act thereon. Thereafter, for each condition, 10000 cells in total of a CD34-positive fraction were cultured in a CO2 incubator under conditions of 37° C. and 5% CO2 for 1 week, and the cell count was determined. Among the cells after culture, 10000 cells, a number equal to the number of cells before culture, were transplanted into an immunocompromised NOG mouse exposed to a lethal dose of radiation. As a comparative sample, 10000 fresh cord blood-derived CD34-positive cells (uncultured) were transplanted. For peripheral blood donor chimerism at each specified time after transplantation, the human CD45-positive cell count and the mouse CD45-positive cell count were determined by using a human-specific CD45 antibody and a mouse-specific CD45 antibody, and the peripheral blood donor chimerism was represented as the proportion of human CD45-positive cells to the total of human CD45-positive cells and mouse CD45-positive cells (chimerism rate).

[4] = test system: human CD34-positive fraction; test: Ex vivo culture of 10000 human CD34-positive cells before transplantation (cell count); assay type: cell-based; details: compound 0.003 μM; 10000 CD34-positive cells cultured 1 week
Procedure: as §1

[5] = UM171 (35 nM) and artemether 0.001 μM
[6] = UM171 (35 nM) and artemether 0.003 μM
[7] = UM171 (35 nM) and artemether 0.01 μM
[8] = UM171 (35 nM) and artemether 0.03 μM
[9] = UM171 (35 nM) and artemether 0.1 μM
[10] = UM171 (35 nM) and artemether 0.3 μM
[11] = UM171 (35 nM) and artemether 1 μM
[12] = compound 0.001 μM, 180 cells before culture, no UM171
[13] = compound 0.003 μM, 180 cells before culture, no UM171
[14] = compound 0.01 μM, 180 cells before culture, no UM171
[15] = compound 0.03 μM, 180 cells before culture, no UM171
[16] = compound 0.1 μM, 180 cells before culture, no UM171
[17] = compound 0.3 μM, 180 cells before culture, no UM171
[18] = compound 1 μM, 180 cells before culture, no UM171
[19] = compound 3 μM, 180 cells before culture, no UM171
[20] = compound 10 μM, 180 cells before culture, no UM171

CO[C@H]1O[C@@H]2O[C@@]3(C)CC[C@H]4[C@H](C)CC[C@@H]([C@H]1C)[C@@]24OO3 [Example 1-30, artemether, reference compound] showed a CD34-positive cell count [1, 5] of 36 cell, a Viable cell count [1, 5] of 301 cell and a CD34-positive cell count [1, 6] of 102 cell. The Viable cell count [1, 6] was 765 cell, the CD34-positive cell count [1, 7] was 43 cell and the Viable cell count [1, 7] was 323 cell. For the same compound, the CD34-positive cell count [1, 8] was 56 cell, the Viable cell count [1, 8] was 216 cell and the CD34-positive cell count [1, 9] was 93 cell. For the same compound, the Viable cell count [1, 9] was 376 cell, the CD34-positive cell count [1, 10] was 9 cell and the Viable cell count [1, 10] was 240 cell. For the same compound, the CD34-positive cell count [1, 11] was 0 cell, the Viable cell count [1, 11] was 31 cell and the CD34-positive cell count [1, 12] was 59 cell. For the same compound, the Viable cell count [1, 12] was 484 cell, the CD34-positive cell count [1, 13] was 88 cell and the Viable cell count [1, 13] was 921 cell. It also gave a CD34-positive cell count [1, 14] of 57 cell, a Viable cell count [1, 14] of 498 cell and a CD34-positive cell count [1, 15] of 23 cell. The Viable cell count [1, 15] was 298 cell, the CD34-positive cell count [1, 16] was 45 cell and the Viable cell count [1, 16] was 555 cell. For the same compound, the CD34-positive cell count [1, 17] was 61 cell, the Viable cell count [1, 17] was 550 cell and the CD34-positive cell count [1, 18] was 35 cell. For the same compound, the Viable cell count [1, 18] was 479 cell, the CD34-positive cell count [1, 19] was 26 cell and the Viable cell count [1, 19] was 380 cell. The CD34-positive cell count [1, 20] was 27 cell, the Viable cell count [1, 20] was 250 cell and the “Colony count (colony) after culture (CFU-GEMM)” value (“Colony count (colony)” below) [2, 5] was 40.1 colony. The “Colony count (colony)” value [2, 6] was 204.0 colony, the “Colony count (colony)” value [2, 7] was 53.8 colony and the “Colony count (colony)” value [2, 8] was 46.8 colony. For the same compound, the “Colony count (colony)” value [2, 9] was 94.0 colony, the “Colony count (colony)” value [2, 10] was 40.0 colony and the “Colony count (colony)” value [2, 11] was 0.0 colony. The “Colony count (colony)” value ([2]; compound 0.001 μM, 1 week culture then 2 weeks MethoCult H4435, no UM171) was 40.3 colony, the “Colony count (colony)” value ([2]; compound 0.003 μM, 1 week culture then 2 weeks MethoCult H4435, no UM171) was 61.4 colony and the “Colony count (colony)” value ([2]; compound 0.01 μM, 1 week culture then 2 weeks MethoCult H4435, no UM171) was 33.2 colony. The “Colony count (colony)” value ([2]; compound 0.03 μM, 1 week culture then 2 weeks MethoCult H4435, no UM171) was 34.8 colony, the “Colony count (colony)” value ([2]; compound 0.1 μM, 1 week culture then 2 weeks MethoCult H4435, no UM171) was 37.0 colony and the “Colony count (colony)” value ([2]; compound 0.3 μM, 1 week culture then 2 weeks MethoCult H4435, no UM171) was 36.7 colony. For the same compound, the “Colony count (colony)” value ([2]; compound 1 μM, 1 week culture then 2 weeks MethoCult H4435, no UM171) was 63.9 colony, the “Colony count (colony)” value ([2]; compound 3 μM, 1 week culture then 2 weeks MethoCult H4435, no UM171) was 31.7 colony and the “Colony count (colony)” value ([2]; compound 10 μM, 1 week culture then 2 weeks MethoCult H4435, no UM171) was 0.0 colony. The Donor chimerism ([3]; 1 month after transplantation) was 0.041 ± 0.022%, the Donor chimerism ([3]; 2 months after transplantation) was 0.605 ± 0.95% and the Donor chimerism ([3]; 3 months after transplantation) was 2.108 ± 2.479%. The Viable cell count [4] was 95954 cell.
